Experiment [1] concerns Crabgrass (CG). Kind of experiment: Pre-emergence herbicide test. The experiment is classed as in vivo, Digitaria sanquinalis. As to conditions: Digitaria sanguinalis, pre-emergence, 336 h; 8 lb/acre; two weeks after treatment. In short, it runs like this: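 Crabgrass (Digitaria sanquinalis) was surface seeded in 3' plastic pots of potting soil, covered with screened soil, and watered by sub-irrigation in greenhouse trays. Pots were seeded one day before spraying in a hood with a moving belt and fixed nozzle. Plants stayed in the greenhouse on sub-irrigation, and pre-emergence control was rated visually two weeks after treatment.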

In experiment [2] the test system is Bean (BN). In words: Post-emergence herbicide test. It is filed as in vivo, Phaseolus vulgaris var. Black Valentine. As to conditions: Phaseolus vulgaris, post-emergence, 336 h, two weeks after treatment; for pest or weed control at 8966.8 g/ha: 8 lb/acre; for pest or weed control at 4483.4 g/ha: 4 lb/acre. In short, it runs like this:
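Snapbean (Phaseolus vulgaris var. Black Valentine) was tested post-emergence. Four seeds were sown in 3' plastic pots of potting soil at a depth equal to the seed diameter, then sub-irrigated in greenhouse trays. Planting dates were staggered so plants were sprayed once primary leaves had expanded, with the growing point at the primary leaf nodes.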

For experiment [3], the system named is Bean (BN). In words: Pre-emergence herbicide test. The experiment is classed as in vivo, Phaseolus vulgaris var. Black Valentine. As to conditions: Phaseolus vulgaris, 336 h, 8 lb/acre, two weeks after treatment. The procedure, abridged:
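Black Valentine bean was seeded in potting soil one day before spraying. Compound was applied pre-emergence at 8 lbs/acre (also 4 lbs/acre) in 38 gallons per acre. Plants were sub-irrigated and injury or control was rated visually after two weeks.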

Experiment [4] deals with Turnip (TP). Kind of experiment: Post-emergence herbicide test. It is filed as in vivo, Brassica sp. The following applies: Brassica rapa, post-emergence, 336 h, two weeks after treatment; for pest or weed control at 8966.8 g/ha: 8 lb/acre; for pest or weed control at 4483.4 g/ha: 4 lb/acre. The procedure, abridged:
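A greenhouse post-emergence herbicide test on turnip. Seeds were sown on the surface of potting soil in 3' plastic pots, lightly covered with screened soil and watered from below. Planting was timed so seedlings had 1 or 2 true leaves above the cotyledons at spraying, done in a hood with a fixed nozzle. Control or injury was scored by eye after two weeks.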

Experiment [5] concerns Turnip (TP). Kind of experiment: Pre-emergence herbicide test. The experiment is classed as in vivo, Brassica sp. The following applies: Brassica rapa, pre-emergence, 336 h; 8 lb/acre; two weeks after treatment. In short, it runs like this: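 Turnip (Brassica sp.) seeds were surface sown in 3' plastic pots of potting soil, covered with a thin layer of screened soil, and sub-irrigated in greenhouse trays. Pots were seeded one day ahead of treatment, sprayed pre-emergence under a hood with a fixed nozzle and moving belt, then kept in the greenhouse.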

Experiment [6] has as its system Crabgrass (CG). Kind of experiment: Post-emergence herbicide test. It is filed as in vivo, Digitaria sanquinalis. The following applies: Digitaria sanguinalis, post-emergence, 336 h, two weeks after treatment; for pest or weed control at 8966.8 g/ha: 8 lb/acre; for pest or weed control at 4483.4 g/ha: 4 lb/acre. The procedure, abridged: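 Crabgrass (Digitaria sanquinalis) was surface seeded individually in 3' plastic pots of potting soil, covered with screened soil, and watered by sub-irrigation in greenhouse trays. Planting was staggered so seedlings reached the target stage together. Post-emergence sprays were applied in a hood with a removable belt and fixed nozzle, and control was visually rated two weeks after treatment.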

In experiment [7] the test system is Cotton (CT). Kind of experiment: Post-emergence herbicide test. It is filed as in vivo, Gossypium hirsutum var. DPL smooth leaf. The following applies: Gossypium hirsutum, post-emergence, 336 h, two weeks after treatment; for pest or weed control at 8966.8 g/ha: 8 lb/acre; for pest or weed control at 4483.4 g/ha: 4 lb/acre. In short, it runs like this:
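Cotton (Gossypium hirsutum var. DPL smooth leaf) was grown in 3' plastic pots of potting soil, four seeds per pot, planted at a depth equal to the seed diameter and watered by sub-irrigation. At the stage of expanded cotyledons with the first true leaf 1' long, plants were sprayed post-emergence in a hood with a fixed nozzle over a moving belt. Percent control was rated visually two weeks later.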

Experiment [8] deals with Amaranth pigweed (PW). Kind of experiment: Pre-emergence herbicide test. As to conditions: 336 h, 8 lb/acre, two weeks after treatment. The experiment is classed as in vivo, Amaranthus retroflexus. The procedure, abridged:
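Pigweed was surface-seeded in potted soil one day before spraying at 8 lbs compound per acre, or 4 lbs/acre, in 38 gallons per acre. Pots were kept in the greenhouse with sub-irrigation only; injury or control was rated visually two weeks after treatment.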

The test system of experiment [9] is Yellow foxtail grass (YF). Kind of experiment: Post-emergence herbicide test. It is filed as in vivo, Setaria glauca. The following applies: Setaria, 336 h, two weeks after treatment; for pest or weed control at 8966.8 g/ha: 8 lb/acre; for pest or weed control at 4483.4 g/ha: 4 lb/acre. As for the experimental part:
Yellow foxtail grass (YF)--Setaria glauca
All crop and weed species were planted individually in 3' plastic pots containing potting soil. Four seeds each of corn, cotton, and snapbeans were seeded to a depth equal to the diameter of the seed. All other species were surface seeded and sprinkled with screened soil in an amount sufficient to cover the seed. Immediately after planting, all pots were watered by sub-irrigation in greenhouse trays. Pots for the pre-emergence phase were seeded one day before treatment.
Planting dates for the post-emergence phase were varied so that all seedlings would reach the desired stage of development simultaneously. The proper stage of seedling development for treatment in the post-emergence phase is as follows:
Compounds were tested at rates of application equivalent to 8 lbs. of actual compound per acre in a spray volume of 38 gallons per acre. Spray hood constants required to deliver the above volume are as follows:
Formulations for spray applications were prepared in 50 ml volumes with the following three components:
Formulations for the 4 lbs/acre rate were prepared by adjusting the amount of active ingredient accordingly.
Spray applications were made in a hood containing a removable belt and fixed spray nozzle. For passage through the spray hood, one pot of each specie (pre-emergence phase) was placed on the rear half of the flat. Treatments were removed to the greenhouse after spraying. Watering during the observation period was done only by sub-irrigation.
Two weeks after treatment, pre- and post-emergence injury or control was visually rated, and the results were as shown in the following tables. Pre-emergence data are provided in TABLE III and post-emergence data are provided in TABLE IV, for compounds having the formula illustrated in TABLE I. Correspondingly, pre-emergence and post-emergence data, respectively, are set forth in TABLES V AND VI, for compounds having the formula illustrated in TABLE II.

Experiment [10] deals with Corn (CN). Kind of experiment: Post-emergence herbicide test. The experiment is classed as in vivo. As to conditions: Zea mays, 336 h, two weeks after treatment; for pest or weed control at 8966.8 g/ha: 8 lb/acre; for pest or weed control at 4483.4 g/ha: 4 lb/acre. The procedure, abridged: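 Greenhouse seedlings grown in potting soil and sprayed post-emergence at 8 lbs compound/acre (formulations also made for 4 lbs/acre) in 38 gallons/acre spray volume. Watering by sub-irrigation only. Injury or control rated visually two weeks after treatment.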

The test system of experiment [11] is Corn (CN). Kind of experiment: Pre-emergence herbicide test. It is filed as in vivo. The following applies: Zea mays, 336 h, 8 lb/acre, two weeks after treatment. The procedure, abridged:
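Four corn seeds per pot, sown at seed-diameter depth one day before spraying, got soil surface treatment at 8 lbs/acre (4 lbs/acre formulations also prepared) in 38 gallons/acre. Pots were greenhouse-held with sub-irrigation only. Injury or control was scored visually two weeks after treatment.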

Experiment [12] deals with Barnyard grass (BG). In words: Pre-emergence herbicide test. The experiment is classed as in vivo. As to conditions: Echinochloa crus-galli, 336 h, 8 lb/acre, two weeks after treatment. In short, it runs like this: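 Barnyard grass surface-seeded in potting soil and sprayed pre-emergence one day after seeding, at 8 or 4 lb compound/acre in 38 gal/acre spray volume. Pots kept in greenhouse with sub-irrigation only; injury or control rated visually two weeks after treatment.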

Experiment [13] relates to Barnyard grass (BG). In words: Post-emergence herbicide test. The experiment is classed as in vivo. As to conditions: Echinochloa crus-galli, 336 h, two weeks after treatment; for pest or weed control at 8966.8 g/ha: 8 lb/acre; for pest or weed control at 4483.4 g/ha: 4 lb/acre. In short, it runs like this: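 Greenhouse pot-grown barnyard grass seedlings sprayed post-emergence at 8 lbs active compound per acre (some at 4 lbs/acre) in 38 gallons per acre, then sub-irrigated. Injury or control rated visually two weeks after treatment.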

Experiment [14] concerns Cotton (CT). Kind of experiment: Pre-emergence herbicide test. It is filed as in vivo, Gossypium hirsutum var. DPL smooth leaf. The following applies: Gossypium hirsutum, 336 h, 8 lb/acre, two weeks after treatment. In short, it runs like this:
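Crop and weed species seeded one day before treatment, then sprayed pre-emergence at 8 lbs actual compound per acre (also 4 lbs/acre formulations) in 38 gallons per acre. Pots kept in greenhouse with sub-irrigation only; injury or control visually rated two weeks after treatment.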

The subject of experiment [15] is Johnson grass (JG). In words: Post-emergence herbicide test. It is filed as in vivo, Sorgum helepense. As to conditions: Sorghum halepense, 336 h, two weeks after treatment; for pest or weed control at 8966.8 g/ha: 8 lb/acre; for pest or weed control at 4483.4 g/ha: 4 lb/acre. The procedure, abridged:
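Greenhouse pot-grown seedlings sprayed post-emergence at 8 lbs compound per acre (some at 4 lbs/acre) in 38 gallons per acre spray volume. Sub-irrigated thereafter. Injury/control rated visually two weeks after treatment.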

For experiment [16], the system named is Amaranth pigweed (PW). In words: Post-emergence herbicide test. The experiment is classed as in vivo, Amaranthus retroflexus. As to conditions: 336 h, two weeks after treatment; for pest or weed control at 8966.8 g/ha: 8 lb/acre. In short, it runs like this: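 Pot-grown pigweed was sprayed post-emergence at the 1–2 true-leaf stage with compound at rates equivalent to 8 lbs per acre (formulations also prepared for 4 lbs/acre) in 38 gallons per acre, using a hood with fixed nozzle. Plants were sub-irrigated in the greenhouse, and injury or control was rated visually two weeks after treatment.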

Experiment [17] has as its system Johnson grass (JG). In words: Pre-emergence herbicide test. It is filed as in vivo, Sorgum helepense. The following applies: Sorghum halepense, 336 h, 8 lb/acre, two weeks after treatment. The procedure, abridged:
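Pots seeded one day before spraying; compound applied pre-emergence at 8 lbs/acre (or 4 lbs/acre) in 38 gallons/acre spray volume. Sub-irrigated in greenhouse; injury/control rated visually two weeks after treatment.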

This note sets out measurements from patent publication US4175081A, “5-Substituted thiadiazole ureas” (priority 1977, dated 1979).

On to `CCc1nnc(NC(=O)NC)s1` [Example 3, 1-Methyl-3-[5-Ethyl-2-(1,3,4-Thiadiazolyl)] Urea], for which the pest or weed control at 8966.8 g/ha came out at 10% with Crabgrass (CG) [1]; 60% with Bean (BN) [2]; 90% with Bean (BN) [3]; 100% in the experiment on Turnip (TP) [4]; 70% in the experiment with Turnip (TP) [5]; 20% in the experiment on Crabgrass (CG) [6]. In addition, the pest or weed control at 8966.8 g/ha with Cotton (CT) [7] was found to be 90%; in the experiment with Amaranth pigweed (PW) [8], 70%; in experiment [9] it was 20%; in the experiment with Corn (CN) [10] it was 20%; with Corn (CN) [11], 100%; in the experiment with Barnyard grass (BG) [12], 10%. Also, the pest or weed control at 8966.8 g/ha in the experiment on Barnyard grass (BG) [13] turned out to be 20%; with Cotton (CT) [14] it was 50%; with Johnson grass (JG) [15], 20%; in the experiment with Amaranth pigweed (PW) [16] it was 100%; in the experiment on Johnson grass (JG) [17] it was 20%.
Consider `CNC(=O)Nc1nnc(C)s1` [Example 18], for which the pest or weed control at 8966.8 g/ha with Crabgrass (CG) [1] was 10%; in the experiment with Bean (BN) [2], 50%; in the experiment with Bean (BN) [3], 50%; in the experiment with Turnip (TP) [4], 40%; in the experiment on Turnip (TP) [5] it was 50%; in the experiment with Crabgrass (CG) [6], 20%. Moreover, the pest or weed control at 8966.8 g/ha came out at 50% with Cotton (CT) [7]; 10% in the experiment with Amaranth pigweed (PW) [8]; 20% in [9]; 20% in the experiment on Corn (CN) [10]; 30% in the experiment with Corn (CN) [11]; 20% in the experiment with Barnyard grass (BG) [12]. The pest or weed control at 8966.8 g/ha in the experiment with Barnyard grass (BG) [13] was 20%; with Cotton (CT) [14], 30%; in the experiment with Johnson grass (JG) [15], 20%; with Amaranth pigweed (PW) [16], 40%; with Johnson grass (JG) [17], 10%.
Turning to `C=C(C)CSc1nnc(NC(=O)NC)s1` [Example 49], the pest or weed control at 4483.4 g/ha is 50% in the experiment with Bean (BN) [2]; 90% in the experiment on Turnip (TP) [4]; 80% with Crabgrass (CG) [6]; 100% with Cotton (CT) [7]; 40% in experiment [9]; 40% in the experiment with Corn (CN) [10]. Further, the pest or weed control at 4483.4 g/ha with Barnyard grass (BG) [13] and in the experiment with Johnson grass (JG) [15] was 40% throughout. Besides, the pest or weed control at 2241.7 g/ha in the experiment on Turnip (TP) [4] (2 lb/acre) stood at 70%; in the experiment with Amaranth pigweed (PW) [16] (2 lb/acre), 100%.
Take `CCC(C)Sc1nnc(NC(=O)NC)s1` (stereo not shown) [Example 48]: the pest or weed control at 4483.4 g/ha in the experiment with Bean (BN) [2] was 50%; in the experiment with Turnip (TP) [4], 70%; in the experiment with Crabgrass (CG) [6], 70%; in the experiment on Cotton (CT) [7] it was 100%; in experiment [9], 30%; in the experiment with Corn (CN) [10] it was 30%. Besides, the pest or weed control at 4483.4 g/ha in the experiment on Barnyard grass (BG) [13] worked out at 40%; in the experiment with Johnson grass (JG) [15], 60%.
For the compound `CNC(=O)Nc1nnc(-c2cccc(Cl)c2)s1` [Example 72], the pest or weed control at 8966.8 g/ha in the experiment with Crabgrass (CG) [1] stood at 0%; in the experiment on Bean (BN) [2], 20%; in the experiment on Bean (BN) [3], 100%; in the experiment with Turnip (TP) [4], 40%; in the experiment with Turnip (TP) [5], 0%; in the experiment with Crabgrass (CG) [6], 30%. The pest or weed control at 8966.8 g/ha in the experiment on Cotton (CT) [7] was found to be 30%; in experiment [9], 30%; with Corn (CN) [10], 0%; in the experiment on Corn (CN) [11], 30%; with Barnyard grass (BG) [12], 0%; in the experiment with Barnyard grass (BG) [13] it was 40%. Also, the pest or weed control at 8966.8 g/ha with Cotton (CT) [14] came out at 80%; with Johnson grass (JG) [15] it was 20%; in the experiment with Johnson grass (JG) [17], 0%.
